Data from patent US20160252532A1, “pH-Biosensors Based on Compounds Produced From Pyruvic Acid For Magnetic Resonance Imaging and Spectroscopy and Their Uses” (TECHNISCHE UNIVERSITÄT MÜNCHEN, priority 2013, published 2016).

Columns and labels:
HeLa cells = test: MTT assay cell viability (cytotoxicity test); type: cell-based; settings: 0.4 to 50 mM, 24 hours, up to tested concentration of 50 mM, ZA 100% pure, OMPD 80% OMPD/20% ZA
Procedure: MTT assay with HeLa cells for testing cell viability after exposure to (A) OMPD and (B) zymonic acid (ZA) (0.4 to 50 mM) for 24 hours.
(12C, ZA: 100% pure; OMPD: 80% OMPD, 20% ZA).
Purified zymonic acid and OMPD were tested in a MTT assay with HeLa cells for testing cell viability after exposure to each substance at concentrations of 0.4 to 50 mM for 24 hours. After 24 hours incubation time, both substances are not cytotoxic up to the tested concentration of 50 mM.

MCF-7 tumor cells = test: 13C-OMPD in cell culture medium with MCF-7 tumor cells immobilized in alginate beads (extracellular pH); type: cell-based; settings: ca. 6 mM fully-labeled 13C-OMPD, ca. 10 Mio. MCF-7 cells, 10 hours
Procedure: Ten ^13C-spectra (proton decoupled) of ca. 6 mM fully-labeled ^13C-OMPD dissolved in cell culture medium with ca. 10 Mio. MCF-7 tumor cells immobilized in alginate beads were acquired during a total time of 10 hours within every hour.
The pH sensitive OMPD-peaks 1, 5 and 6 of zymonic acid were also observed in ^13C-NMR spectra of ^13C-OMPD dissolved in cell culture medium with MCF-7 tumor cells immobilized in alginate beads.

[1] = Stability in aqueous solution; type: physicochemical
Procedure: An exemplary ^13C spectrum (left column) and ^1H spectrum (right column) of zymonic acid produced from [1-^13C]-pyruvic acid. The relevant peaks 1 to 5, which shift in dependency of the pH value of the sample, are marked. The proton spectra show a buffered solution of zymonic acid in water and D2O, once measured right after preparation of the solution (top right) and 24 h later (bottom right).
The assignment of the NMR-peaks of zymonic acid was done using NMR prediction software (ChemDraw®) and standard 1D- and 2D-NMR-spectroscopy (see FIG. 5). […] The relevant peaks 1 to 5, which shift in dependency of the pH value of the sample, are marked. […] The proton spectra show a buffered solution of zymonic acid in water and D2O, once measured right after preparation of the solution (top right of FIG. 5) and 24 h later (bottom right of FIG. 5).

rat bladder = test: In vivo pH determination in rat bladder with copolarized zymonic acid and urea; settings: injection into rat bladder via catheter, 10 mm slice
Text: FIG. 19. Copolarization of zymonic acid and urea, injection into the rat bladder via a catheter.
A 10 mm slice covering the bladder volume was chosen.
6 injections of copolarized zymonic acid in healthy rats via a catheter directly into the bladder followed by pH-imaging and pH-control of the urine before an after injection by pH-electrode (see FIG. 19).

[2] = cited from earlier work
rats = test: Toxicity tests in rats; type: in vivo
Procedure: Toxicity tests with a volume of 5 mL/kg at an injection rate of 0.2 mL/s for three different concentrations (20 mM (A), 40 mM (B), 80 mM (C)). Injection solution contained 80 mM Tris buffer solution, titrated with 1M NaOH to pH 7.4.
20 mM, 40 mM, and 80 mM zymonic acid were injected into 3 rats within one week with 1 day break in between each injection (see FIG. 14).
Blood pressure, heart rate, blood oxygenation and animal temperature were monitored 10 minutes before and after the injection.

| SMILES | cytotoxicity (cell viability, MTT) (HeLa cells) | metabolism within tumor cells (MCF-7 tumor cells) | stability in aqueous solutions [1] | agreement of NMR-measured pH with electrode pH (rat bladder) | pKa of the enolic group [2] | behaviour of the animals (rats; 20, 40 and 80 mM injections) | survival after injections (rats; 20, 40 and 80 mM, 5 mL/kg, 3 rats, injections within one week) | health problems (rats; 20, 40 and 80 mM, even after 3 days post last injection) | decomposition in buffered solution ([1]; buffered solution in water and D2O, 24 hours, also cites Montgomery et al., 1956) |
| --- | --- | --- | --- | --- | --- | --- | --- | --- | --- |
| C/C(=C/C(=O)C(=O)O)C(=O)O [OMPD, (Z)-4-methyl-2-oxopent-3-enedioic acid] | not cytotoxic | not metabolized within tumor cells | stable in aqueous solutions | – | – | – | – | – | – |
| CC1(C(=O)O)C=C(O)C(=O)O1 (stereo not shown) [zymonic acid, 4-hydroxy-2-methyl-5-oxo-2,5-dihydrofuran-2-carboxylic acid] | not cytotoxic | – | – | Electrode pH measurements confirm the pH values measured by NMR spectroscopy | 6.95 | No unusual behaviour | survived all injections | did not show health problems | slowly decomposed into parapyruvate within a period of 24 hours |
